# Test results as given in patent publication US8802597B2, “Herbicidal pyrimidines” (E I du Pont de Nemours and Company, priority 2003, dated 2014).
# Key:
# Assay type in all cases: in vivo
# [1] = tested on: chickweed (Stellaria media); experiment: Test C postemergence
# Procedure, shortened: (§1)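 Pre: seeds planted, sprayed same day. Post: 1- to 4-leaf plants (2–18 cm). Formulation: non-phytotoxic solvent + surfactant. Greenhouse 12–14 d; visual % control vs untreated, 0–100.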
# [2] = tested on: barnyardgrass (Echinochloa crus-galli); experiment: Test A pre/postemergence
# Procedure, shortened: (§2)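 Soil: loam blended with sand. Formulation: non-phytotoxic solvent mixture with surfactant. Timing: preemergence soil spray plus concurrent postemergence spray (plants 2–10 cm, 1–2 leaves). Readout: visual injury versus untreated controls at ~10 days, 0–100.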
# [3] = tested on: crabgrass (Digitaria sanguinalis); experiment: Test A pre/postemergence
# Procedure, shortened: as §2
# [4] = tested on: bermudagrass (Cynodon dactylon); experiment: Test C pre/postemergence; settings: for Plant response rating (scale of 0 to 100), Bermudagrass / Bermudagrass plant response rating: Postemergence; for Bermudagrass plant response rating: scale 0 to 100 (0 no effect, 100 complete control); for Plant response rating, Bermudagrass: Preemergence
# Procedure, shortened: as §1
# [5] = tested on: pigweed (Amaranthus retroflexus); experiment: Test C pre/postemergence; settings: for Plant response rating, Pigweed: Preemergence, scale 0 to 100, 0 no effect, 100 complete control
# Procedure, shortened: as §1
# [6] = tested on: common ragweed (Ambrosia elatior); experiment: Test C pre/postemergence; settings: for Plant response rating, Ragweed: Preemergence, scale 0 to 100, 0 no effect, 100 complete control
# Procedure, shortened: as §1
# [7] = tested on: yellow nutsedge (Cyperus esculentus); experiment: Test C pre/postemergence; settings: for Plant response rating, Nutsedge, Yellow: Preemergence, scale 0 to 100, 0 no effect, 100 complete control
# Procedure, shortened: as §1
# [8] = tested on: goosegrass (Eleusine indica); experiment: Test C pre/postemergence; settings: for Plant response rating, Goosegrass: Preemergence
# Procedure, shortened: as §1
# [9] = tested on: velvetleaf (Abutilon theophrasti); experiment: Test C pre/postemergence; settings: for Plant response rating, Velvetleaf: Preemergence, scale 0 to 100, 0 no effect, 100 complete control
# Procedure, shortened: as §1
# [10] = tested on: woolly cupgrass (Eriochloa villosa); experiment: Test C pre/postemergence; settings: for Plant response rating, Cupgrass, Woolly: Preemergence
# Procedure, shortened: as §1
# [11] = Postemergence, 125 g ai/ha, 0 to 100 scale (0 no effect, 100 complete control)
# [12] = Postemergence, 500 g ai/ha, 0 to 100 scale (0 no effect, 100 complete control)
# [13] = Preemergence, 125 g ai/ha, 0 to 100 scale where 0 is no effect and 100 is complete control, approximately ten days
# [14] = Preemergence, 500 g ai/ha, 0 to 100 scale where 0 is no effect and 100 is complete control, approximately ten days
# [15] = 16 g ai/ha, scale 0 to 100, 0 no effect, 100 complete control
# [16] = 31 g ai/ha, scale 0 to 100, 0 no effect, 100 complete control
# [17] = 62 g ai/ha, scale 0 to 100, 0 no effect, 100 complete control
# [18] = Postemergence, 125 g ai/ha, scale 0 to 100 (0 no effect, 100 complete control)
smiles,measurement,setting,value
CCCCOC(=O)c1nc(C2CC2)nc(N)c1Cl [Compound 76],"Plant response rating (scale of 0 to 100), Chickweed",[1]; 16 g ai/ha,35
same,"Plant response rating (scale of 0 to 100), Chickweed",[1]; 31 g ai/ha,45
same,"Plant response rating (scale of 0 to 100), Chickweed",[1]; 62 g ai/ha,70
same,Chickweed plant response rating,"[1]; 125 g ai/ha, scale 0 to 100 (0 no effect, 100 complete control)",95
same,"Plant response rating, Barnyardgrass",[2]; [11],90
same,"Plant response rating, Barnyardgrass",[2]; [12],90
same,"Plant response rating, Barnyardgrass",[2]; [13],75
same,"Plant response rating, Barnyardgrass",[2]; [14],90
same,"Plant response rating, Crabgrass",[3]; [11],45
same,"Plant response rating, Crabgrass",[3]; [12],70
same,"Plant response rating, Crabgrass",[3]; [13],30
same,"Plant response rating, Crabgrass",[3]; [14],75
same,"Plant response rating (scale of 0 to 100), Bermudagrass",[4]; 16 g ai/ha,15
same,"Plant response rating (scale of 0 to 100), Bermudagrass",[4]; 31 g ai/ha,70
same,Bermudagrass plant response rating,[4]; 62 g ai/ha,75
same,Bermudagrass plant response rating,[4]; 125 g ai/ha,75
same,"Plant response rating, Bermudagrass",[4]; [15],0
same,"Plant response rating, Bermudagrass",[4]; [16],0
same,"Plant response rating, Bermudagrass",[4]; [17],0
same,"Plant response rating, Bermudagrass","[4]; 125 g ai/ha, scale 0 to 100",0
same,"Plant response rating (scale of 0 to 100), Pigweed","[5]; Postemergence, 16 g ai/ha",85
same,"Plant response rating (scale of 0 to 100), Pigweed","[5]; Postemergence, 31 g ai/ha",95
same,"Plant response rating (scale of 0 to 100), Pigweed","[5]; Postemergence, 62 g ai/ha",100
same,Pigweed plant response rating,[5]; [18],100
same,"Plant response rating, Pigweed",[5]; 16 g ai/ha,60
same,"Plant response rating, Pigweed",[5]; 31 g ai/ha,80
same,"Plant response rating, Pigweed",[5]; 62 g ai/ha,80
same,"Plant response rating (scale of 0 to 100), Ragweed","[6]; Postemergence, 16 g ai/ha",80
same,"Plant response rating (scale of 0 to 100), Ragweed","[6]; Postemergence, 31 g ai/ha",90
same,"Plant response rating (scale of 0 to 100), Ragweed","[6]; Postemergence, 62 g ai/ha",95
same,Ragweed plant response rating,[6]; [18],100
same,"Plant response rating, Ragweed",[6]; 16 g ai/ha,50
same,"Plant response rating, Ragweed",[6]; 31 g ai/ha,60
same,"Plant response rating, Ragweed",[6]; 62 g ai/ha,80
same,"Plant response rating, Ragweed",[6],100
same,"Plant response rating (scale of 0 to 100), Nutsedge, Yellow","[7]; Postemergence, 16 g ai/ha",10
same,"Plant response rating (scale of 0 to 100), Nutsedge, Yellow","[7]; Postemergence, 31 g ai/ha",30
same,"Plant response rating (scale of 0 to 100), Nutsedge, Yellow","[7]; Postemergence, 62 g ai/ha",40
same,"Nutsedge, Yellow plant response rating",[7]; [18],60
same,"Plant response rating, Nutsedge, Yellow",[7]; 16 g ai/ha,0
same,"Plant response rating, Nutsedge, Yellow",[7]; 31 g ai/ha,0
same,"Plant response rating, Nutsedge, Yellow",[7]; 62 g ai/ha,0
same,"Plant response rating (scale of 0 to 100), Goosegrass","[8]; Postemergence, 16 g ai/ha",30
same,"Plant response rating (scale of 0 to 100), Goosegrass","[8]; Postemergence, 31 g ai/ha",45
same,"Plant response rating (scale of 0 to 100), Goosegrass","[8]; Postemergence, 62 g ai/ha",45
same,Goosegrass plant response rating,[8]; [18],50
same,"Plant response rating, Goosegrass",[8]; [15],0
same,"Plant response rating, Goosegrass",[8]; [16],0
same,"Plant response rating, Goosegrass",[8]; [17],0
same,"Plant response rating, Goosegrass","[8]; 125 g ai/ha, scale 0 to 100",0
same,"Plant response rating (scale of 0 to 100), Velvetleaf","[9]; Postemergence, 16 g ai/ha",45
same,"Plant response rating (scale of 0 to 100), Velvetleaf","[9]; Postemergence, 31 g ai/ha",80
same,"Plant response rating (scale of 0 to 100), Velvetleaf","[9]; Postemergence, 62 g ai/ha",95
same,Velvetleaf plant response rating,[9]; [18],95
same,"Plant response rating, Velvetleaf",[9]; 16 g ai/ha,30
same,"Plant response rating, Velvetleaf",[9]; 31 g ai/ha,40
same,"Plant response rating, Velvetleaf",[9]; 62 g ai/ha,70
same,"Plant response rating (scale of 0 to 100), Cupgrass, Woolly","[10]; Postemergence, 16 g ai/ha",55
same,"Plant response rating (scale of 0 to 100), Cupgrass, Woolly","[10]; Postemergence, 31 g ai/ha",60
same,"Plant response rating (scale of 0 to 100), Cupgrass, Woolly","[10]; Postemergence, 62 g ai/ha",80
same,"Cupgrass, Woolly plant response rating",[10]; [18],95
same,"Plant response rating, Cupgrass, Woolly",[10]; [15],0
same,"Plant response rating, Cupgrass, Woolly",[10]; [16],0
same,"Plant response rating, Cupgrass, Woolly",[10]; [17],20
same,"Plant response rating, Cupgrass, Woolly","[10]; 125 g ai/ha, scale 0 to 100",50
